From patent US10004701B2, “Methods and compositions for treating infection” (UNIVERSITY OF ROCHESTER, priority 2012, dated 2018)
Structures can show the parent of a compound that is named as a salt. Where two headings read alike, the source gives them in different places.

Tests used:
Assay in all cases: AK assay 384-well format, Prestwick library screening
E. faecium = type: cell-based, Enterococcus faecium; conditions: 50 μM final drug concentration; for AK-based Prestwick Library Screening Results, E. faecium (fold increase in extracellular AK activity): planktonic; for fold induction at 50 µM: Enterococcus faecium, 3 h
[1] = tested on: S. aureus strain USA300-0114; type: cell-based, Staphylococcus aureus; conditions: 50 μM final drug concentration; for AK-based Prestwick Library Screening Results, S. aureus (fold increase in extracellular AK activity): planktonic; for fold induction at 50 µM: Staphylococcus aureus, USA300, 3 h
K. pneumoniae = type: cell-based, Klebsiella pneumoniae; conditions: 50 μM final drug concentration; for AK-based Prestwick Library Screening Results, K. pneumoniae (fold increase in extracellular AK activity): planktonic; for fold induction at 50 µM: Klebsiella pneumoniae, 3 h
[2] = tested on: A. baumannii strain 98-37-09; type: cell-based, Acinetobacter baumannii; conditions: 50 μM final drug concentration; for AK-based Prestwick Library Screening Results, A. baumannii (fold increase in extracellular AK activity): planktonic; for fold induction at 50 µM: Acinetobacter baumannii, 983709, 3 h
P. aeruginosa = type: cell-based, Pseudomonas aeruginosa; conditions: 50 μM final drug concentration; for AK-based Prestwick Library Screening Results, P. aeruginosa (fold increase in extracellular AK activity): planktonic; for fold induction at 50 µM: Pseudomonas aeruginosa, 3 h
E. cloacae = type: cell-based, Enterobacter cloacae; conditions: 50 μM final drug concentration; for AK-based Prestwick Library Screening Results, E. cloacae (fold increase in extracellular AK activity): planktonic; for fold induction at 50 µM: Enterobacter cloacae, 3 h
E. coli = type: cell-based, Escherichia coli; conditions: 50 μM final drug concentration; for AK-based Prestwick Library Screening Results, E. coli (fold increase in extracellular AK activity): planktonic; for fold induction at 50 µM: Escherichia coli, 3 h
[3] = 384-well format, cutoff for positive-scoring molecules 3-fold increase, read-out: AK-based Prestwick Library Screening Results, E. faecium (increase in extracellular AK activity)
[4] = 384-well format, cutoff for positive-scoring molecules 3-fold increase, read-out: AK-based Prestwick Library Screening Results, S. aureus (increase in extracellular AK activity)
[5] = 384-well format, cutoff for positive-scoring molecules 3-fold increase, read-out: AK-based Prestwick Library Screening Results, K. pneumoniae (increase in extracellular AK activity)
[6] = 384-well format, cutoff for positive-scoring molecules 3-fold increase, read-out: AK-based Prestwick Library Screening Results, A. baumannii (increase in extracellular AK activity)
[7] = 384-well format, cutoff for positive-scoring molecules 3-fold increase, read-out: AK-based Prestwick Library Screening Results, P. aeruginosa (increase in extracellular AK activity)
[8] = 384-well format, cutoff for positive-scoring molecules 3-fold increase, read-out: AK-based Prestwick Library Screening Results, E. cloacae (increase in extracellular AK activity)
[9] = 384-well format, cutoff for positive-scoring molecules 3-fold increase, read-out: AK-based Prestwick Library Screening Results, E. coli (increase in extracellular AK activity)
[10] = planktonic E. faecium, 384-well, cutoff for positive-scoring molecules 3-fold increase, read-out: AK-based Prestwick Library Screening Results: E. faecium (increase in extracellular AK activity)
[11] = planktonic S. aureus, 384-well, cutoff for positive-scoring molecules 3-fold increase, read-out: AK-based Prestwick Library Screening Results: S. aureus (increase in extracellular AK activity)
[12] = planktonic K. pneumoniae, 384-well, cutoff for positive-scoring molecules 3-fold increase, read-out: AK-based Prestwick Library Screening Results: K. pneumoniae (increase in extracellular AK activity)
[13] = planktonic A. baumannii, 384-well, cutoff for positive-scoring molecules 3-fold increase, read-out: AK-based Prestwick Library Screening Results: A. baumannii (increase in extracellular AK activity)
[14] = planktonic P. aeruginosa, 384-well, cutoff for positive-scoring molecules 3-fold increase, read-out: AK-based Prestwick Library Screening Results: P. aeruginosa (increase in extracellular AK activity)
[15] = planktonic E. cloacae, 384-well, cutoff for positive-scoring molecules 3-fold increase, read-out: AK-based Prestwick Library Screening Results: E. cloacae (increase in extracellular AK activity)
[16] = planktonic E. coli, 384-well, cutoff for positive-scoring molecules 3-fold increase, read-out: AK-based Prestwick Library Screening Results: E. coli (increase in extracellular AK activity)
[17] = cutoff for positive 3-fold increase

## COC1=C[C@@H]2C3=C([C@@H]2C1=O)[C@@H](NC(C)=O)CCc1cc(OC)c(OC)c(OC)c13 [Lumicolchicine gamma]
E. faecium; […]
  AK-based Prestwick Library Screening Results, E. faecium (fold increase in extracellular AK activity): 1.0
[1]; […]
  AK-based Prestwick Library Screening Results, S. aureus (fold increase in extracellular AK activity): 0.9
K. pneumoniae; […]
  AK-based Prestwick Library Screening Results, K. pneumoniae (fold increase in extracellular AK activity): 1.0
[2]; […]
  AK-based Prestwick Library Screening Results, A. baumannii (fold increase in extracellular AK activity): 1.2
P. aeruginosa; […]
  AK-based Prestwick Library Screening Results, P. aeruginosa (fold increase in extracellular AK activity): 1.1
E. cloacae; […]
  AK-based Prestwick Library Screening Results, E. cloacae (fold increase in extracellular AK activity): 1.4
E. coli; […]
  AK-based Prestwick Library Screening Results, E. coli (fold increase in extracellular AK activity): 1.1

## O=c1cc(-c2ccc(O)c(O)c2)oc2cc(O)cc(O)c12 [Luteolin]
E. faecium; cutoff for positive-scoring molecules 3-fold increase, read-out: AK-based Prestwick Library Screening Results, E. faecium (fold increase in extracellular AK activity)
  fold induction at 50 µM: 0.5
[1]; cutoff for positive-scoring molecules 3-fold increase, read-out: AK-based Prestwick Library Screening Results, S. aureus (fold increase in extracellular AK activity)
  fold induction at 50 µM: 0.2
K. pneumoniae; cutoff for positive-scoring molecules 3-fold increase, read-out: AK-based Prestwick Library Screening Results, K. pneumoniae (fold increase in extracellular AK activity)
  fold induction at 50 µM: 0.5
[2]; cutoff for positive-scoring molecules 3-fold increase, read-out: AK-based Prestwick Library Screening Results, A. baumannii (fold increase in extracellular AK activity)
  fold induction at 50 µM: 0.3
P. aeruginosa; cutoff for positive-scoring molecules 3-fold increase, read-out: AK-based Prestwick Library Screening Results, P. aeruginosa (fold increase in extracellular AK activity)
  fold induction at 50 µM: 0.5
E. cloacae; cutoff for positive-scoring molecules 3-fold increase, read-out: AK-based Prestwick Library Screening Results, E. cloacae (fold increase in extracellular AK activity)
  fold induction at 50 µM: 1.6
E. coli; cutoff for positive-scoring molecules 3-fold increase, read-out: AK-based Prestwick Library Screening Results, E. coli (fold increase in extracellular AK activity)
  fold induction at 50 µM: 0.4

## CN(C)[C@@H]1C(O)=C(C(=O)NCNCCCC[C@H](N)C(=O)O)C(=O)[C@@]2(O)C(O)=C3C(=O)c4c(O)cccc4[C@@](C)(O)[C@H]3C[C@@H]12 [Lymecycline]
E. faecium; planktonic E. faecium, […], read-out: AK-based Prestwick library screening result, E. faecium (fold increase in extracellular AK activity)
  fold induction at 50 µM: 1
[1]; planktonic S. aureus, […], read-out: AK-based Prestwick library screening result, S. aureus (fold increase in extracellular AK activity)
  fold induction at 50 µM: 0.7
K. pneumoniae; planktonic K. pneumoniae, […], read-out: AK-based Prestwick library screening result, K. pneumoniae (fold increase in extracellular AK activity)
  fold induction at 50 µM: 0.7
[2]; planktonic A. baumannii, […], read-out: AK-based Prestwick library screening result, A. baumannii (fold increase in extracellular AK activity)
  fold induction at 50 µM: 0.8
P. aeruginosa; planktonic P. aeruginosa, […], read-out: AK-based Prestwick library screening result, P. aeruginosa (fold increase in extracellular AK activity)
  fold induction at 50 µM: 0.7
E. cloacae; planktonic E. cloacae, […], read-out: AK-based Prestwick library screening result, E. cloacae (fold increase in extracellular AK activity)
  fold induction at 50 µM: 1.2
E. coli; planktonic E. coli, […], read-out: AK-based Prestwick library screening result, E. coli (fold increase in extracellular AK activity)
  fold induction at 50 µM: 0.8

## C#C[C@]1(O)CC[C@H]2[C@@H]3CCC4=CCCC[C@@H]4[C@H]3CC[C@@]21C [Lynestrenol]
E. faecium; [3]
  fold induction at 50 µM: 0.9
[1]; [4]
  fold induction at 50 µM: 0.5
K. pneumoniae; [5]
  fold induction at 50 µM: 0.6
[2]; [6]
  fold induction at 50 µM: 1.4
P. aeruginosa; [7]
  fold induction at 50 µM: 0.6
E. cloacae; [8]
  fold induction at 50 µM: 0.7
E. coli; [9]
  fold induction at 50 µM: 0.7

## CN1C[C@H](CO)C=C2c3cccc4[nH]cc(c34)C[C@H]21 [Lysergol]
E. faecium; […]
  AK-based Prestwick Library Screening Results, E. faecium (fold increase in extracellular AK activity): 0.9
[1]; […]
  AK-based Prestwick Library Screening Results, S. aureus (fold increase in extracellular AK activity): 0.9
K. pneumoniae; […]
  AK-based Prestwick Library Screening Results, K. pneumoniae (fold increase in extracellular AK activity): 0.8
[2]; […]
  AK-based Prestwick Library Screening Results, A. baumannii (fold increase in extracellular AK activity): 1.0
P. aeruginosa; […]
  AK-based Prestwick Library Screening Results, P. aeruginosa (fold increase in extracellular AK activity): 1.1
E. cloacae; […]
  AK-based Prestwick Library Screening Results, E. cloacae (fold increase in extracellular AK activity): 1.6
E. coli; […]
  AK-based Prestwick Library Screening Results, E. coli (fold increase in extracellular AK activity): 1.1

## NCc1ccc(S(N)(=O)=O)cc1 [Mafenide hydrochloride]
E. faecium; [3]
  fold induction at 50 µM: 1.2
[1]; [4]
  fold induction at 50 µM: 0.6
K. pneumoniae; [5]
  fold induction at 50 µM: 0.5
[2]; [6]
  fold induction at 50 µM: 0.5
P. aeruginosa; [7]
  fold induction at 50 µM: 0.5
E. cloacae; [8]
  fold induction at 50 µM: 0.6
E. coli; [9]
  fold induction at 50 µM: 0.6

## CNCCCC12CCC(c3ccccc31)c1ccccc12 [Maprotiline hydrochloride]
E. faecium; planktonic E. faecium, cutoff for positive-scoring molecules 3-fold increase, read-out: AK-based Prestwick Library Screening Results, E. faecium (increase in extracellular AK activity)
  fold induction at 50 µM: 0.8
[1]; planktonic S. aureus, cutoff for positive-scoring molecules 3-fold increase, read-out: AK-based Prestwick Library Screening Results, S. aureus (increase in extracellular AK activity)
  fold induction at 50 µM: 1.1
K. pneumoniae; planktonic K. pneumoniae, cutoff for positive-scoring molecules 3-fold increase, read-out: AK-based Prestwick Library Screening Results, K. pneumoniae (increase in extracellular AK activity)
  fold induction at 50 µM: 0.6
[2]; planktonic A. baumannii, cutoff for positive-scoring molecules 3-fold increase, read-out: AK-based Prestwick Library Screening Results, A. baumannii (increase in extracellular AK activity)
  fold induction at 50 µM: 0.8
P. aeruginosa; planktonic P. aeruginosa, cutoff for positive-scoring molecules 3-fold increase, read-out: AK-based Prestwick Library Screening Results, P. aeruginosa (increase in extracellular AK activity)
  fold induction at 50 µM: 0.9
E. cloacae; planktonic E. cloacae, cutoff for positive-scoring molecules 3-fold increase, read-out: AK-based Prestwick Library Screening Results, E. cloacae (increase in extracellular AK activity)
  fold induction at 50 µM: 0.9
E. coli; planktonic E. coli, cutoff for positive-scoring molecules 3-fold increase, read-out: AK-based Prestwick Library Screening Results, E. coli (increase in extracellular AK activity)
  fold induction at 50 µM: 0.8

## COC(=O)Nc1nc2ccc(C(=O)c3ccccc3)cc2[nH]1 [Mebendazole]
E. faecium; [10]
  fold induction at 50 µM: 0.9
[1]; [11]
  fold induction at 50 µM: 0.9
K. pneumoniae; [12]
  fold induction at 50 µM: 0.8
[2]; [13]
  fold induction at 50 µM: 0.7
P. aeruginosa; [14]
  fold induction at 50 µM: 0.8
E. cloacae; [15]
  fold induction at 50 µM: 1.2
E. coli; [16]
  fold induction at 50 µM: 0.8

## CCN(CCCCOC(=O)c1ccc(OC)c(OC)c1)C(C)Cc1ccc(OC)cc1 (stereo not shown) [Mebeverine hydrochloride]
E. faecium; [10]
  fold induction at 50 µM: 1
[1]; [11]
  fold induction at 50 µM: 1.1
K. pneumoniae; [12]
  fold induction at 50 µM: 1
[2]; [13]
  fold induction at 50 µM: 1.4
P. aeruginosa; [14]
  fold induction at 50 µM: 1.1
E. cloacae; [15]
  fold induction at 50 µM: 1.3
E. coli; [16]
  fold induction at 50 µM: 1.3

## CN1CCc2c(c3ccccc3n2Cc2ccccc2)C1.O=S(=O)(O)c1cccc2c(S(=O)(=O)O)cccc12 [Mebhydroline 1,5-naphtalenedisulfonate]
E. faecium; [17]
  AK-based Prestwick Library Screening Results, E. faecium (fold increase in extracellular AK activity): 1.0
[1]; [17]
  AK-based Prestwick Library Screening Results, S. aureus (fold increase in extracellular AK activity): 0.9
K. pneumoniae; [17]
  AK-based Prestwick Library Screening Results, K. pneumoniae (fold increase in extracellular AK activity): 0.8
[2]; [17]
  AK-based Prestwick Library Screening Results, A. baumannii (fold increase in extracellular AK activity): 0.9
P. aeruginosa; [17]
  AK-based Prestwick Library Screening Results, P. aeruginosa (fold increase in extracellular AK activity): 1.1
E. cloacae; [17]
  AK-based Prestwick Library Screening Results, E. cloacae (fold increase in extracellular AK activity): 1.5
E. coli; [17]
  AK-based Prestwick Library Screening Results, E. coli (fold increase in extracellular AK activity): 1.1
